5 compounds from article PMC7321065, “Discovery of New Schiff Bases Tethered Pyrazole Moiety: Design, Synthesis, Biological Evaluation, and Molecular Docking Study as Dual Targeting DHFR/DNA Gyrase Inhibitors with Immunomodulatory Activity” (Molecules, 2020) can be followed below.

Molecules are shown by their SMILES.

Common to all, as to test: Inhibition zone, agar plate diffusion
What all share (assay type): cell-based

The test system of experiment [1] is Candida albicans. As to conditions: read-out: Inhibition zone (IZ). The protocol:
(§1) Antimicrobial activities of the newly formed Schiff bases (6a–d, 7a–d, 8a–d, and 9a–d) and reference drugs were evaluated against three Gram-positive, three Gram-negative, and two fungi strain at Al-Azhar University, Cairo, Egypt. The inhibition zones (IZ, in mm ± standard deviation) and the minimal inhibitory concentration (MIC) (μg/mL) were determined by the conventional paper disk diffusion method.
(§2) In Vitro Antimicrobial Activities
(§3) The antimicrobial activities inhibition zone (IZ, mm±standard deviation) of pyrazole Schiff bases ( 6a-d , 7a-d, 8a-d and 9a-d ) was measurement according to the agar plate diffusion method. Briefly, 100 µl of the […]
(§4) […] of each sample (at 0.5 mg/mL) was added to each well (10 mm diameter holes cut in the agar gel). The plates were incubated for 24 h at 37 °C (for bacteria and yeast) and for 72 h at 27 °C (for filamentous fungi), each test was repeated three times. After incubation, the microorganism's growth was observed. […]
(§5) drugs while Amphotericin B was used as standard antifungal drug. The resulting inhibition zone diameters were measured in millimeters and used as criterion for the antimicrobial activity. Solvent controls (DMSO) were included in every experiment as negative controls. DMSO was used for dissolving […]
(§6) the tested microorganisms. […]
(§7) Bacteria were grown on nutrient agar medium, while fungi and yeast were grown on Sabouraud agar medium. […]

The subject of experiment [2] is Staphylococcus aureus. As to conditions: read-out: Inhibition zone (IZ). As to the method:
as §1, §2, §3, §4, §5, §6, §7

The subject of experiment [3] is Salmonella typhi. As to conditions: Salmonella enterica, St, mm ± standard deviation, sample at 0.5 mg/mL, read-out: Inhibition zone (IZ). As to the method: as §1, §2, §3, §4, §5, §6, §7
Experiment [4] has as its system Fusarium oxysporum. Particulars: read-out: Inhibition zone (IZ). As to the method: as §1, §2, §3, §4, §5, §6, §7
The subject of experiment [5] is Bacillus subtilis. As to conditions: read-out: Inhibition zone (IZ). The protocol:
as §1, §2, §3, §4, §5, §6

For experiment [6], the system named is Escherichia coli. As to conditions: read-out: Inhibition zone (IZ). The protocol:
as §1, §2, §3, §4, §5, §6

The test system of experiment [7] is Enterococcus faecalis. Particulars: read-out: Inhibition zone (IZ). As to the method: as §1, §2, §3, §4, §5, §6
Experiment [8] has as its system Pseudomonas aeruginosa. Particulars: read-out: Inhibition zone (IZ). The protocol: as §1, §2, §3, §4, §5, §6

For the compound `COc1ccc(Nc2n[nH]c(N=Cc3c(C)n(C)n(-c4ccccc4)c3=O)c2C(=O)Nc2ccc(Cl)cc2)cc1` [6d, N-(4-Chlorophenyl)-5-((1,5-dimethyl-3-oxo-2-phenyl-2,3-dihydro-1H-pyrazol-4-yl)methyleneamino)-3-(p-methoxyphenylamino)-1H-pyrazole-4-carboxamide], the zone of inhibition at 500 µg/mL in experiment [1] was 13 ± 0.2 mm; in experiment [2], below 8 mm; in experiment [3], below 8 mm; in experiment [4], below 8 mm; in experiment [5], 13 ± 0.41 mm; in experiment [6], 19 ± 0.33 mm. For the same compound, the zone of inhibition at 500 µg/mL in experiment [7] was 14 ± 0.47 mm; in experiment [8], 12 ± 0.63 mm.
In the case of `COc1ccc(Nc2n[nH]c(N=Cc3ccc(N4CCCCC4)cc3)c2C(=O)Nc2ccccc2)cc1` [8b, 3-(p-Methoxyphenylamino)-N-phenyl-5-(4-(piperidin-1-yl)benzylideneamino)-1H-pyrazole-4-carboxamide], the zone of inhibition at 500 µg/mL in experiment [1] is 12 ± 0.65 mm; in experiment [2] it was below 8 mm; in experiment [3], 15 ± 0.2 mm; in experiment [4] it was below 8 mm; in experiment [5], 15 ± 0.45 mm; in experiment [6] it was 14 ± 0.21 mm. Further, the zone of inhibition at 500 µg/mL was 12 ± 0.74 mm in experiment [7] and below 8 mm in experiment [8].
For the compound `COc1ccc(Nc2n[nH]c(N=Cc3c(C)nn(-c4ccccc4)c3Cl)c2C(=O)Nc2ccc(Cl)cc2)cc1` [7d, 5-((5-Chloro-3-methyl-1-phenyl-1H-pyrazol-4-yl)methyleneamino)-N-(p-chlorophenyl)-3-(p-methoxyphenylamino)-1H-pyrazole-4-carboxamide], the zone of inhibition at 500 µg/mL was 20 ± 0.5 mm in experiment [1]; 24 ± 0.33 mm in experiment [2]; 17 ± 0.12 mm in experiment [3]; 15 ± 0.14 mm in experiment [4]; 23 ± 0.22 mm in experiment [5]; 27 ± 0.3 mm in experiment [6]. Further, the results for the zone of inhibition at 500 µg/mL in experiment [7] and in experiment [8] were 22 ± 0.35 mm and 17 ± 0.74 mm, respectively.
Turning to `COc1ccc(Nc2n[nH]c(N=Cc3c(C)n(C)n(-c4ccccc4)c3=O)c2C(=O)Nc2ccc(C)cc2)cc1` [6c, 5-((1,5-Dimethyl-3-oxo-2-phenyl-2,3-dihydro-1H-pyrazol-4-yl)methyleneamino)-3-(p-methoxyphenylamino)-N-p-tolyl-1H-pyrazole-4-carboxamide], the zone of inhibition at 500 µg/mL in experiment [1] is 17 ± 0.21 mm; in experiment [2], 23 ± 0.29 mm; in experiment [3], 15 ± 0.36 mm; in experiment [4] it was 9 ± 0.35 mm; in experiment [5], 20 ± 0.11 mm; in experiment [6], 22 ± 0.43 mm. Besides, the results for the zone of inhibition at 500 µg/mL in experiment [7] and in experiment [8] were 21 ± 0.54 mm and below 8 mm, respectively.
As for `COc1ccc(Nc2n[nH]c(N=Cc3ccc(N4CCCCC4)cc3)c2C(=O)Nc2ccc(C)cc2)cc1` [8c, 3-(p-Methoxyphenylamino)-5-(4-(piperidin-1-yl)benzylideneamino)-N-p-tolyl-1H-pyrazole-4-carboxamide], the zone of inhibition at 500 µg/mL was 19 ± 0.65 mm in experiment [1]; 17 ± 0.78 mm in experiment [2]; 14 ± 0.52 mm in experiment [3]; below 8 mm in experiment [4]; 22 ± 0.41 mm in experiment [5]; 18 ± 0.3 mm in experiment [6]. Further, the values for the zone of inhibition at 500 µg/mL in experiment [7] and in experiment [8] were 25 ± 0.14 mm and below 8 mm, respectively.
